Biological target: T1, soluble ectodomain of sortilin-6his (Homo sapiens, UniProt Q99523, V650M)
T1 construct: the soluble ectodomain of sortilin-6his is measured by microscale thermophoresis (MST)
Assay: MST binding to soluble ectodomain of sortilin-6his
Details: Table 4, small molecule bifunctional compounds, MST; for Kd: read-out: KD score, binding to sortilin (Kd)
Experimental: At this point the plate was sealed with adhesive strip and placed on an Eppendorf thermomixer to shake at 600 rpm for 3 min before spinning on a Fisherbrand plate-spinner for 15 seconds and further incubation 1 hrs at 19° C. MST was measured on a Monolith NT. Automated (Nanotemper) in standard-treated capillaries at 5% LED-power and high MST-power. Dose-response was extracted from the raw thermographs at 20 sec hot-time and the dissociation constant was estimated by sigmoidal curve fitting in MO. Affinity analysis program (Nanotemper). All experiments were run in duplicates.

T1 sequence (Q99523 with tags, fused parts or gaps V650M): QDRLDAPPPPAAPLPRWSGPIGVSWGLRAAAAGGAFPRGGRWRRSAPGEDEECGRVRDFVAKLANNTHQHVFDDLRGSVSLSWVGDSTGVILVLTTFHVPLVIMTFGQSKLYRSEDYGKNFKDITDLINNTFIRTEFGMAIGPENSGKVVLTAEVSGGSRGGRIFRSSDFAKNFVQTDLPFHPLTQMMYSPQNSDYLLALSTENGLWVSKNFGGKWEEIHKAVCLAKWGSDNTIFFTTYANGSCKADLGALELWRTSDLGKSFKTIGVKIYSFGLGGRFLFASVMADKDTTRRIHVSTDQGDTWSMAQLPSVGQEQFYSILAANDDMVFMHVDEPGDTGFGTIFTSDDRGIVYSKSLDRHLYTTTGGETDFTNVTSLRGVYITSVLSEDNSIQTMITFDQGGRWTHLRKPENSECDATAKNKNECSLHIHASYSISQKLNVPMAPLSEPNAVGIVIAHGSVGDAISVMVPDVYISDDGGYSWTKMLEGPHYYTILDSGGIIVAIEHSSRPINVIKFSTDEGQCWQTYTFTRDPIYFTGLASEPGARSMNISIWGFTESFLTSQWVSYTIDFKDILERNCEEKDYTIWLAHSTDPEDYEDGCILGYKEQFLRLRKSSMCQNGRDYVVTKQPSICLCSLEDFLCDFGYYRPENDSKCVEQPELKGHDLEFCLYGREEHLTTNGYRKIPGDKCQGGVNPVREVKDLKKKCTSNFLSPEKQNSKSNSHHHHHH

| Compound | Kd [nM] | KD score, binding to sortilin (Kd) |
| --- | --- | --- |
| CC(C)(C)CC[C@H](NC(=O)COc1cccc(Oc2ccc(C(=O)NCCOCCOCCOCCOCc3cn(CCCCCOc4ncc(-c5ccc6c(n5)N(Cc5cccnc5C#N)C(C)(C)C6=O)cn4)nn3)cn2)c1)C(=O)O [BF075, (2S)-2-[[2-[3-[[5-[2-[2-[2-[2-[[1-[5-[5-[1-[(2-cyano-3-pyridyl)methyl]-2,2-dimethyl-3-oxo-pyrrolo[2,3-b]pyridin-6-yl]pyrimidin-2-yl]oxypentyl]triazol-4-yl]methoxy]ethoxy]ethoxy]ethoxy]ethylcarbamoyl]-2-pyridyl]oxy]phenoxy]acetyl]amino]-5,5-dimethyl-hexanoic acid] |  | 0 |
| Cc1nc2cc(F)c(-c3cnc(OCCCCCn4cc(COCCOCCOCCOCCNC(=O)COc5cccc(Oc6ccc(C(=O)N[C@@H](CCC(C)(C)C)C(=O)O)cn6)c5)nn4)nc3)nc2c(N[C@H](C)c2cc(C#N)ccc2F)c1Cl [BF084, (2S)-2-[[6-[3-[2-[2-[2-[2-[2-[[1-[5-[5-[7-chloro-8-[[(1R)-1-(5-cyano-2-fluoro-phenyl)ethyl]amino]-3-fluoro-6-methyl-1,5-naphthyridin-2-yl]pyrimidin-2-yl]oxypentyl]triazol-4-yl]methoxy]ethoxy]ethoxy]ethoxy]ethylamino]-2-oxo-ethoxy]phenoxy]pyridine-3-carbonyl]amino]-5,5-dimethyl-hexanoic acid] | 1 to 10 |  |
| Cc1nc2cc(F)c(-c3cnc(OCCOCCOCCOCCOCCOCCOCCNC(=O)COc4cccc(Oc5ccc(C(=O)N[C@@H](CCC(C)(C)C)C(=O)O)cn5)c4)nc3)nc2c(N[C@H](C)c2cc(C#N)ccc2F)c1Cl [BF085, (2S)-2-[[6-[3-[2-[2-[2-[2-[2-[2-[2-[2-[5-[7-chloro-8-[[(1R)-1-(5-cyano-2-fluoro-phenyl)ethyl]amino]-3-fluoro-6-methyl-1,5-naphthyridin-2-yl]pyrimidin-2-yl]oxyethoxy]ethoxy]ethoxy]ethoxy]ethoxy]ethoxy]ethylamino]-2-oxo-ethoxy]phenoxy]pyridine-3-carbonyl]amino]-5,5-dimethyl-hexanoic acid] | 1 to 10 |  |
| Cc1nc2cc(F)c(-c3cnc(OCCOCCn4cc(COCC(=O)N5CC(OCCNC(=O)COc6cccc(Oc7ccc(C(=O)N[C@@H](CCC(C)(C)C)C(=O)O)cn7)c6)C5)nn4)nc3)nc2c(N[C@H](C)c2cc(C#N)ccc2F)c1Cl [BF088, (2S)-2-[[6-[3-[2-[2-[1-[2-[[1-[2-[2-[5-[7-chloro-8-[[(1R)-1-(5-cyano-2-fluoro-phenyl)ethyl]amino]-3-fluoro-6-methyl-1,5-naphthyridin-2-yl]pyrimidin-2-yl]oxyethoxy]ethyl]triazol-4-yl]methoxy]acetyl]azetidin-3-yl]oxyethylamino]-2-oxo-ethoxy]phenoxy]pyridine-3-carbonyl]amino]-5,5-dimethyl-hexanoic acid] | 1 to 10 |  |
| C[C@@H]1CN(c2ncc(-c3ccc4c(n3)N(Cc3cccnc3C#N)C(C)(C)C4=O)cn2)CCN1C(=O)Cn1cc(COCCOCCOCCOCCOc2cccc(Oc3ccc(C(=O)N[C@@H](CCC(C)(C)C)C(=O)O)cn3)c2)nn1 [BF101, (2S)-2-[[6-[3-[2-[2-[2-[2-[[1-[2-[(2R)-4-[5-[1-[(2-cyano-3-pyridyl)methyl]-2,2-dimethyl-3-oxo-pyrrolo[2,3-b]pyridin-6-yl]pyrimidin-2-yl]-2-methyl-piperazin-1-yl]-2-oxo-ethyl]triazol-4-yl]methoxy]ethoxy]ethoxy]ethoxy]ethoxy]phenoxy]pyridine-3-carbonyl]amino]-5,5-dimethyl-hexanoic acid] | 1 to 10 |  |
| C[C@@H]1CN(c2ncc(-c3ccc4c(n3)N(Cc3cccnc3C#N)C(C)(C)C4=O)cn2)CCN1C(=O)CNC(=O)CCCCCCCCn1cc(CCc2cccc(Oc3ccc(C(=O)N[C@@H](CCC(C)(C)C)C(=O)O)cn3)c2)nn1 [BF108, (2S)-2-[[6-[3-[2-[1-[9-[[2-[(2R)-4-[5-[1-[(2-cyano-3-pyridyl)methyl]-2,2-dimethyl-3-oxo-pyrrolo[2,3-b]pyridin-6-yl]pyrimidin-2-yl]-2-methyl-piperazin-1-yl]-2-oxo-ethyl]amino]-9-oxo-nonyl]triazol-4-yl]ethyl]phenoxy]pyridine-3-carbonyl]amino]-5,5-dimethyl-hexanoic acid] | 1 to 10 |  |

Second part, the compound after the results:

| Kd [nM] | KD score, binding to sortilin (Kd) | Compound |
| --- | --- | --- |
| 1 to 10 |  | CC(C)(C)CC[C@H](NC(=O)c1ccc(Oc2cccc(C(=O)NCCOCCOCCOc3ncc(-c4ccc5c(n4)N(Cc4cccnc4C#N)C(C)(C)C5=O)cn3)c2)nc1)C(=O)O [BF070, (2S)-2-[[6-[3-[2-[2-[2-[5-[1-[(2-cyano-3-pyridyl)methyl]-2,2-dimethyl-3-oxo-pyrrolo[2,3-b]pyridin-6-yl]pyrimidin-2-yl]oxyethoxy]ethoxy]ethylcarbamoyl]phenoxy]pyridine-3-carbonyl]amino]-5,5-dimethyl-hexanoic acid] |
| < 1 |  | CC(C)(C)CC[C@H](NC(=O)COc1cccc(Oc2ccc(C(=O)NCCOCCNc3ncc(-c4ccc5c(n4)N(Cc4cccnc4C#N)C(C)(C)C5=O)cn3)cn2)c1)C(=O)O [BF072, (2S)-2-[[2-[3-[[5-[2-[2-[[5-[1-[(2-cyano-3-pyridyl)methyl]-2,2-dimethyl-3-oxo-pyrrolo[2,3-b]pyridin-6-yl]pyrimidin-2-yl]amino]ethoxy]ethylcarbamoyl]-2-pyridyl]oxy]phenoxy]acetyl]amino]-5,5-dimethyl-hexanoic acid] |
| < 1 |  | Cc1nc2cc(F)c(-c3cnc(OCCN4CC(n5cc(COCC(=O)N6CC(OCCNC(=O)COc7cccc(Oc8ccc(C(=O)N[C@@H](CCC(C)(C)C)C(=O)O)cn8)c7)C6)nn5)C4)nc3)nc2c(N[C@H](C)c2cc(C#N)ccc2F)c1Cl [BF089, (2S)-2-[[6-[3-[2-[2-[1-[2-[[1-[1-[2-[5-[7-chloro-8-[[(1R)-1-(5-cyano-2-fluoro-phenyl)ethyl]amino]-3-fluoro-6-methyl-1,5-naphthyridin-2-yl]pyrimidin-2-yl]oxyethyl]azetidin-3-yl]triazol-4-yl]methoxy]acetyl]azetidin-3-yl]oxyethylamino]-2-oxo-ethoxy]phenoxy]pyridine-3-carbonyl]amino]-5,5-dimethyl-hexanoic acid] |
| < 1 |  | Cc1nc2cc(F)c(-c3cnc(OCCN4CCC(n5cc(COCC(=O)N6CCC(OCCNC(=O)COc7cccc(Oc8ccc(C(=O)N[C@@H](CCC(C)(C)C)C(=O)O)cn8)c7)CC6)nn5)CC4)nc3)nc2c(N[C@H](C)c2cc(C#N)ccc2F)c1Cl [BF090, (2S)-2-[[6-[3-[2-[2-[[1-[2-[[1-[1-[2-[5-[7-chloro-8-[[(1R)-1-(5-cyano-2-fluoro-phenyl)ethyl]amino]-3-fluoro-6-methyl-1,5-naphthyridin-2-yl]pyrimidin-2-yl]oxyethyl]-4-piperidyl]triazol-4-yl]methoxy]acetyl]-4-piperidyl]oxy]ethylamino]-2-oxo-ethoxy]phenoxy]pyridine-3-carbonyl]amino]-5,5-dimethyl-hexanoic acid] |
| < 1 |  | C[C@@H]1CN(c2ncc(-c3ccc4c(n3)N(Cc3cccnc3C#N)C(C)(C)C4=O)cn2)CCN1C(=O)Cn1cc(COCCOCCOCCOCCOCCOc2cccc(Oc3ccc(C(=O)N[C@@H](CCC(C)(C)C)C(=O)O)cn3)c2)nn1 [BF098, (2S)-2-[[6-[3-[2-[2-[2-[2-[2-[[1-[2-[(2R)-4-[5-[1-[(2-cyano-3-pyridyl)methyl]-2,2-dimethyl-3-oxo-pyrrolo[2,3-b]pyridin-6-yl]pyrimidin-2-yl]-2-methyl-piperazin-1-yl]-2-oxo-ethyl]triazol-4-yl]methoxy]ethoxy]ethoxy]ethoxy]ethoxy]ethoxy]phenoxy]pyridine-3-carbonyl]amino]-5,5-dimethyl-hexanoic acid] |
| < 1 |  | C[C@@H]1CN(c2ncc(-c3ccc4c(n3)N(Cc3cccnc3C#N)C(C)(C)C4=O)cn2)CCN1C(=O)CNC(=O)CCCCCOCCOCCNC(=O)c1cccc(Oc2ccc(C(=O)N[C@@H](CCC(C)(C)C)C(=O)O)cn2)c1 [BF100, (2S)-2-[[6-[3-[2-[2-[6-[[2-[(2R)-4-[5-[1-[(2-cyano-3-pyridyl)methyl]-2,2-dimethyl-3-oxo-pyrrolo[2,3-b]pyridin-6-yl]pyrimidin-2-yl]-2-methyl-piperazin-1-yl]-2-oxo-ethyl]amino]-6-oxo-hexoxy]ethoxy]ethylcarbamoyl]phenoxy]pyridine-3-carbonyl]amino]-5,5-dimethyl-hexanoic acid] |
| < 1 |  | C[C@@H]1CN(c2ncc(-c3ccc4c(n3)N(Cc3cccnc3C#N)C(C)(C)C4=O)cn2)CCN1C(=O)Cc1cn(CCCCCCCCCn2cc(-c3cccc(Oc4ccc(C(=O)N[C@@H](CCC(C)(C)C)C(=O)O)cn4)c3)nn2)nn1 [BF104, (2S)-2-[[6-[3-[1-[9-[4-[2-[(2R)-4-[5-[1-[(2-cyano-3-pyridyl)methyl]-2,2-dimethyl-3-oxo-pyrrolo[2,3-b]pyridin-6-yl]pyrimidin-2-yl]-2-methyl-piperazin-1-yl]-2-oxo-ethyl]triazol-1-yl]nonyl]triazol-4-yl]phenoxy]pyridine-3-carbonyl]amino]-5,5-dimethyl-hexanoic acid] |
| < 1 |  | C[C@@H]1CN(c2ncc(-c3ccc4c(n3)N(Cc3cccnc3C#N)C(C)(C)C4=O)cn2)CCN1C(=O)Cn1cc(COCCOCCOCC(=O)N2CC(Oc3cccc(Oc4ccc(C(=O)N[C@@H](CCC(C)(C)C)C(=O)O)cn4)c3)C2)nn1 [BF111, (2S)-2-[[6-[3-[1-[2-[2-[2-[[1-[2-[(2R)-4-[5-[1-[(2-cyano-3-pyridyl)methyl]-2,2-dimethyl-3-oxo-pyrrolo[2,3-b]pyridin-6-yl]pyrimidin-2-yl]-2-methyl-piperazin-1-yl]-2-oxo-ethyl]triazol-4-yl]methoxy]ethoxy]ethoxy]acetyl]azetidin-3-yl]oxyphenoxy]pyridine-3-carbonyl]amino]-5,5-dimethyl-hexanoic acid] |
